Reference: patent US4623662A, “Antiatherosclerotic ureas and thioureas” (American Cyanamid Company, priority 1985, dated 1986)

What follows are compounds tested against T1, fatty acyl CoA: cholesterol acyl transferase (ACAT) (Rattus norvegicus, UniProt O70536) (assay: Inhibition of fatty acyl CoA:cholesterol acyl transferase (ACAT), rat adrenal enzyme). Details: not given.
T1 construct: The supernatant, containing the microsomal fraction, served as the source of the cholesterol-esterifying enzyme; from tissue; host or cells: rat adrenals, supernatant of 1,000 x g centrifugation containing the microsomal fraction
T1 sequence (O70536 1-545): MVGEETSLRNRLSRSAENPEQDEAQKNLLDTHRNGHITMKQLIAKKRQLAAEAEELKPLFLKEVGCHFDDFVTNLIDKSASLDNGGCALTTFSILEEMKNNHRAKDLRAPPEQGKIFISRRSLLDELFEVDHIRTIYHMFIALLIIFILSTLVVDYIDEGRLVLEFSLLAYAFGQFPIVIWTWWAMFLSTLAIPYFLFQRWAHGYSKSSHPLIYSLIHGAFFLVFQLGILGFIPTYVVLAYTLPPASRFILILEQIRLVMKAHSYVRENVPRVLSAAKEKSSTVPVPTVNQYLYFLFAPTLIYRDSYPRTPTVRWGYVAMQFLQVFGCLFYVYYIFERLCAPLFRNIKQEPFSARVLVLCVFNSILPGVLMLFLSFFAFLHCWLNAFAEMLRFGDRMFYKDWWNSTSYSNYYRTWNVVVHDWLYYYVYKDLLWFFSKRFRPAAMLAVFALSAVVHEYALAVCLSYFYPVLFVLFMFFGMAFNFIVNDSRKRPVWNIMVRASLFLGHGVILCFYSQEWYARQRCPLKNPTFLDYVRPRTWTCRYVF
Type: biochemical
Description: The compounds of the present invention were assayed for two types of biological activity related to their potential use as antiatherosclerotic agents. Compounds were tested in vitro for the ability to inhibit the enzyme fatty acyl CoA: cholesterol acyl transferase (ACAT) and in vivo for serum hypolipidemic activity as meausred by the ability to inhibit lipid absorption in rats.
The compounds were tested for their ability to inhibit ACAT according to the following procedure: rat adrenals were homogenized in 0.2M monobasic potassium phosphate buffer, pH 7.4, and centrifuged at 1,000 times gravity for 15 minutes at 5° C. The supernatant, containing the microsomal fraction, served as the source of the cholesterol-esterifying enzyme, fatty acyl CoA:cholesterol acyl transferase (ACAT). A mixture comprising 50 parts of adrenal supernatant, 10 parts of bovine serum albumin (50 mg/ml), 3 parts of test compound (final concentration 5.2 μg/ml), and 500 parts of buffer was preincubated at 37° C. for 10 minutes. After treatment with 20 parts of oleoyl CoA (^14 C-0.4 μCi), the mixture was incubated at 37° C. for 10 minutes. A control mixture, omitting the test compound, was prepared and treated in the same manner. The lipids from the incubation mixture was extracted into an organic solvent and separated by thin-layer chromatography. The cholesteryl ester fraction was counted in a scintillation counter. This procedure is a modification of that described by Hashimoto, et al., Life Scie., 12 (Part II), 1-12 (1973).
Compounds which produced statistically significant inhibition of the ACAT enzyme are considered to be active.
In addition to the above described test and the results given in terms of percent inhibition, various compounds of this invention were tested by the same procedure at several concentrations. The results of this test are given in Table II in terms of IC50 (μM), that concentration which produced 50% inhibition of the ACAT enzyme.

| Compound | inhibition at 5.2 µg/mL [%] |
| --- | --- |
| CCCCc1ccc(CN(CCC(C)(C)C)C(=O)Nc2c(F)cc(F)cc2F)cc1 [1-[(4-butylphenyl)methyl]-1-[3,3-dimethylbutyl]-3-[2,4,6-trifluorophenyl]urea] | 90 |
| CCCCc1ccc(CN(CCC(C)(C)C)C(=O)Nc2cccc(C(F)(F)F)c2)cc1 [1-(3,3-Dimethylbutyl)-1-[4-(n-butyl)benzyl]-3-(3-trifluoromethylphenyl)urea] | 90 |

Same assay, conditions: rat adrenal ACAT; final concentration 5.2 μg/ml; read-out: % Inhibition

| inhibition at 5.2 µg/mL [%] | Compound |
| --- | --- |
| 96.7 | CCCCN(Cc1ccc(C)cc1)C(=O)Nc1ccc(C)cc1C [1-(n-Butyl)-1-(4-methylbenzyl)-3-(2,4-dimethylphenyl)urea] |
| 96.1 | CCCCCCCCCCN(Cc1ccccc1)C(=O)Nc1ccc(C)cc1C [1-(n-Decyl)-1-benzyl-3-(2,4-dimethylphenyl)urea] |
| 80.3 | CCCCCCCCCCCCCCN(Cc1ccccc1)C(=O)Nc1ccc(C)cc1C [1-(n-Tetradecyl)-1-benzyl-3-(2,4-dimethylphenyl)urea] |
| 88.6 | CCCCN(Cc1ccccc1)C(=O)Nc1cccc(Cl)c1 [1-Benzyl-1-(n-butyl)-3-(3-chlorophenyl)urea] |
| 95.9 | CCCCN(Cc1ccccc1)C(=O)Nc1ccc(Cl)c(Cl)c1 [1-Benzyl-1-( -n-butyl)-3-(3,4-dichlorophenyl)urea] |
| 77.3 | CCCCCCCN(CCc1ccccc1)C(=O)Nc1cc(Cl)c(Cl)cc1Cl [1-(n-Heptyl)-1-(2-phenylethyl)-3-(2,4,5-trichlorophenyl)urea] |
| 93.3 | CCCCN(CCc1ccc(Cl)cc1)C(=O)Nc1ccc(C)cc1C [1-(n-Butyl)-1-[2-(4-chlorophenyl)ethyl]-3-(2,4-dimethylphenyl)urea] |
| 74.5 | CCCCc1ccc(CN(CCOCCO)C(=O)Nc2ccc(C)cc2C)cc1 [1-[(4-Butylphenyl)methyl]-3-(2,4-dimethylphenyl)-1-[2-(2-hydroxyethoxy)ethyl]urea] |
| 93.3 | CCCCN(Cc1ccc(C(F)(F)F)cc1)C(=O)Nc1ccc(C)cc1C [1-(n-Butyl)-1-(4-trifluoromethylbenzyl)-3-(2,4-dimethylphenyl)urea] |
| 96.8 | CCCCc1ccc(CN(CCCCCCO)C(=O)Nc2ccc(C)cc2C)cc1 [1-[(4-Butylphenyl)methyl]-3-(2,4-dimethylphenyl)-1-(6-hydroxyhexyl)urea] |
| 61.8 | CCCCCCCN(Cc1ccc(CCCC)cc1)C(=O)Nc1ccc(C(=O)O)cc1 [1-(n-Heptyl)-1-(4-n-butylbenzyl)-3-(4-carboxyphenyl)urea] |
| 80.6 | CCCCN(Cc1ccc(F)cc1)C(=O)Nc1ccc(C)cc1C [1-( -n-Butyl)-1-(4-fluorobenzyl)-3-(2,4-dimethylphenyl)urea] |
| 97.4 | CCCCN(CCCc1ccccc1)C(=O)Nc1ccc(C)cc1C [1-(n-Butyl)-1-(3-phenylpropyl)-3-(2,4-dimethylphenyl)urea] |
| 85 | CCCCCOc1ccc(CN(Cc2ccc(CCCCC)cc2)C(=O)Nc2cccc(C(F)(F)F)c2)cc1 [1-(4-n-Pentylbenzyl)-1-(4-n-pentyloxybenzyl)-3-(3-trifluoromethylphenyl)urea] |
| 97.1 | CCCCCCOc1ccc(CN(CCCC)C(=O)Nc2c(C)cc(C)cc2C)cc1 [1-(n-Butyl)-1-(4-hexyloxybenzyl)-3-(2,4,6-trimethylphenyl)urea] |
| 91 | CCCCCOc1ccc(CN(Cc2ccc(CCCCC)cc2)C(=O)Nc2ccc(Cl)cc2C)cc1 [1-(4-n-Pentylbenzyl)-1-(4-n-pentyloxybenzyl)-3-(2-methyl-4-chlorophenyl)urea] |
| 46.5 | CCCCCCCN(Cc1ccc(CCCC)cc1)C(=O)Nc1cc(Cl)c(Cl)cc1Cl [1-(n-Heptyl)-1-(4-n-butylbenzyl)-3-(2,4,5-trichlorophenyl)urea] |
| 93.8 | CCCCCCc1ccc(CN(CCCC)C(=O)Nc2ccc(C)cc2C)cc1 [1-(n-Butyl)-1-[4-(n-hexyl)benzyl]-3-(2,4-dimethylphenyl)urea] |

Further lines, the compound ahead of its results:

| Compound | inhibition at 5.2 µg/mL [%] |
| --- | --- |
| O=C(Nc1ccc(Cl)cc1C(F)(F)F)N(Cc1ccc(Cl)cc1)Cc1cccc2ccccc12 [1-(4-Chlorobenzyl)-1-(1-naphthylmethyl)-3-(2-trifluoromethyl-4-chlorophenyl)urea] | 83 |
| CCCCN(Cc1ccccc1)C(=O)Nc1cc(Cl)ccc1OC [1-Benzyl-1-( -n-butyl)-3-(5-chloro-2-methoxyphenyl)urea] | 80.6 |
| Cc1ccc(NC(=O)N(CCc2cccc(C(F)(F)F)c2)Cc2ccccc2Cl)c(C)c1 [1-[2-(3-Trifluoromethylphenyl)ethyl]-1-(2-chlorobenzyl)-3-(2,4-dimethylphenyl)urea] | 7.8 |
| CCCCN(Cc1ccccc1)C(=O)Nc1cc(Cl)c(NC(=O)C(F)(F)F)c(Cl)c1 [1-(n-Butyl)-1-benzyl-3-(4-trifluoroacetylamino-3,5-dichlorophenyl)urea] | 87.8 |
| CCCCN(Cc1ccccc1)C(=O)Nc1cc(Cl)c(NC(=O)CCl)c(Cl)c1 [1-(n-Butyl)-1-(benzyl)-3-[4-(chloroacetamido)-3,5-dichlorophenyl]urea] | 72.9 |
| COc1ccc(CCN(Cc2ccc(F)cc2)C(=O)Nc2ccc(C)cc2C)cc1OC [1-[2-(3,4-Dimethoxyphenyl)ethyl]-1-(4-fluorobenzyl)-3-(2,4-dimethylphenyl)urea] | 57.4 |
| CCCCN(CCCc1ccc(OC)c(OC)c1)C(=O)Nc1ccc(C)cc1C [1-(n-Butyl)-1-[3-(3,4-dimethoxyphenyl)propyl]-3-(2,4-dimethylphenyl)urea] | 36.4 |
| CCCCCCCN(C(=O)Nc1c(Cl)cc(Cl)cc1Cl)c1ccco1 [1-(n-Heptyl)-1-(2-furyl)-3-(2,4,6-trichlorophenyl)urea] | 96.1 |
| Cc1ccc(NC(=O)N(CCc2ccccc2C)Cc2ccc(Br)cc2)c(C)c1 [1-[2-(2-Methylphenyl)ethyl]-1-(4-bromobenzyl)-3-(2,4-dimethylphenyl)urea] | 29.2 |
| CCCCN(Cc1ccccc1)C(=O)Nc1cc(Cl)cc(Cl)c1 [1-Benzyl-1-( -n-butyl)-3-(3,5-dichlorophenyl)urea] | 90.7 |
| CCCCN(Cc1ccccc1F)C(=O)Nc1ccc(C)cc1C [1-( -n-Butyl)-1-(2-fluorobenzyl)-3-(2,4-dimethylphenyl)urea] | 83.6 |
| CCCCN(CCc1cccc(OC)c1)C(=O)Nc1ccc(C)cc1C [1-(n-Butyl)-1-[2-(3-methoxyphenyl)ethyl]-3-(2,4-dimethylphenyl)urea] | 98.3 |
| CCCCN(Cc1ccccc1)C(=S)Nc1ccccc1 [1-Benzyl-1-(n-butyl)-3-phenyl thiourea] | 82.4 |
| CCOc1ccc(CCN(Cc2ccc(C)cc2C)C(=O)Nc2ccc(C)cc2C)cc1 [1-[2-(4-Ethoxyphenyl)ethyl]-1-(2,4-dimethylbenzyl)-3-(2,4-dimethylphenyl)urea] | 34.9 |
| CCCCN(CC(C)(c1ccccc1)c1ccccc1)C(=O)Nc1ccc(C)cc1C [1-(n-Butyl)-1-(2-methyl-2,2-diphenyl)ethyl-3-(2,4-dimethylphenyl)urea] | 97.4 |
| CCCCCCCN(Cc1ccc(CCCC)cc1)C(=O)Nc1cccc(C(F)(F)F)c1 [1-(n-Heptyl)-1-(4-n-butylbenzyl)-3-(3-trifluoromethylphenyl)urea] | 85 |
| CCCCOc1ccc(CN(Cc2ccccc2)C(=O)Nc2cccc(C(F)(F)F)c2)cc1 [1-(n-Benzyl)-1-(4-n-butoxybenzyl)-3-(3-trifluoromethylphenyl)urea] | 87 |
| COc1ccc(OC)c(CCN(Cc2cccc(Cl)c2)C(=O)Nc2ccc(C)cc2C)c1 [1-[2-(2,5-Dimethoxyphenyl)ethyl]-1-(3-chlorobenzyl)-3-(2,4-dimethylphenyl)urea] | 97.1 |
| Cc1cccc(CN(CCc2ccccc2Cl)C(=O)Nc2ccc(C)cc2C)c1 [1-[2-(2-Chlorophenyl)ethyl]-1-(3-methylbenzyl)-3-(2,4-dimethylphenyl)urea] | 56.1 |
| Cc1cccc(CCN(Cc2cccc([N+](=O)[O-])c2)C(=O)Nc2ccc(C)cc2C)c1 [1-[2-(3-Methylphenyl)ethyl]-1-(3-nitrobenzyl)-3-(2,4-dimethylphenyl)urea] | 95.7 |
